Measured values published in patent US20250320213A1, “Nitrogen-Containing Heterocyclic Compounds” (Pfizer Inc., priority 2024, published 2025).
Read-outs that look alike come from different tables or passages of the source.

Legend:
STAT6 = molecular target: T1, STAT6 (Homo sapiens, UniProt P42226); experiment: STAT6 Reporter Luciferase Assay (IL-13 stimulated HaCaT keratinocyte NanoLuc reporter cells); assay type: cell-based; details: read-out: Reporter EC50
T1 construct: stably transfected HaCaT keratinocyte cell line, which expresses NanoLuc luciferase reporter gene under the transcriptional control of the STAT6 responsive promoter; endogenous in cells; host or cells: HaCaT keratinocyte reporter cell line (stably transfected with a NanoLuc reporter)
T1 sequence (P42226 1-847): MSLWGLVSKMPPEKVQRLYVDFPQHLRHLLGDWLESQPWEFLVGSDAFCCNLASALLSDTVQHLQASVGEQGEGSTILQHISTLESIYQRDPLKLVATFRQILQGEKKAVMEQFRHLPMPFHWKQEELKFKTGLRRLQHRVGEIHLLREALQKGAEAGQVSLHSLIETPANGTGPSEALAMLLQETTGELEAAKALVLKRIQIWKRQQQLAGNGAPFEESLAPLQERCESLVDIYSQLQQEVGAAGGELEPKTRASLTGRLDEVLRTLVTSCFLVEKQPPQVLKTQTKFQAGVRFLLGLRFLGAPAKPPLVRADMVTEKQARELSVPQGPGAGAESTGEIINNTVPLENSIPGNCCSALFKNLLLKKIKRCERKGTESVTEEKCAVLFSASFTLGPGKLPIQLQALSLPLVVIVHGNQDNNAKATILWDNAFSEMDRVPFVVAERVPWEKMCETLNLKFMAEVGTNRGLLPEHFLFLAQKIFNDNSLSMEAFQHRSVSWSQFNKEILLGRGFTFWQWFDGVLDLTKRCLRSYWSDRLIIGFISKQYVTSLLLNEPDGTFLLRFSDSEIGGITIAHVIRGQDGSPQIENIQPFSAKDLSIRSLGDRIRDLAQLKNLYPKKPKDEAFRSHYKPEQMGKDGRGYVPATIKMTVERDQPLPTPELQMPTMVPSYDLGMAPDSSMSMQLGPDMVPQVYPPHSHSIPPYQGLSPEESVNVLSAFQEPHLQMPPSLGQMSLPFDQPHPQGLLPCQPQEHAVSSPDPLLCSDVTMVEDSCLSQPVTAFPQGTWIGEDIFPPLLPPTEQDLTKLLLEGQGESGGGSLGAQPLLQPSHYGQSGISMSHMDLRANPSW
Outline: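 Luminescence from a NanoLuc reporter driven by the STAT6-responsive IL-13Ra2 promoter in HaCaT keratinocytes serves as the read-out. Compounds are given 2 h before a 4 h stimulation with 0.12 nM IL-13.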

[1] = test system: CCL17 secretion in peripheral human whole blood; experiment: Human Whole Blood (HWB) CCL17 TR-FRET Assay (IL-13 stimulated CCL17 secretion); assay type: cell-based
Outline: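 Heparin-anticoagulated human blood; cpd 11-pt 3-fold dilution, duplicate, 2 h 37 °C preinc; IL-13 10 ng/mL final, 48 h 37 °C; spin, serum CCL17 by TR-FRET ELISA, 16 h RT, 665/615 ratio; IC50.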

[2] = IL-13 stimulated HaCaT STAT6 NanoLuc reporter cells
[3] = Homo sapiens, 48 h, human whole blood, IL-13 stimulated
[4] = STAT6 NanoLuc luciferase reporter, IL-13 stimulated HaCaT keratinocyte cells
[5] = Homo sapiens, 48 h, inhibition of CCL17 secretion in human whole blood, 10 ng/mL IL13, 48 hours
[6] = human whole blood, IL-13 stimulated, 48 hours

For `CC(C)n1ncc2c1CN(C(=O)c1ccc(N3CCc4c(c(C(=O)NCc5ccc(NC(=O)N(C)C)cc5)nn4C(C)C)C3)nc1)CC2` [Example 437, N-(4-(3,3-dimethylureido)benzyl)-1-isopropyl-5-(5-(1-isopropyl-4,5,6,7-tetrahydro-1H-pyrazolo[3,4-c]pyridine-6-carbonyl)pyridin-2-yl)-4,5,6,7-tetrahydro-1H-pyrazolo[4,3-c]pyridine-3-carboxamide], the EC50 (STAT6; [2]) was 45 nM and the IC50 [1, 3] was 1050 nM.
With `CC(C)n1nc(C(=O)NCc2ccc(NC(=O)N(C)C)cc2)c2c1CCN(c1ccc(N3CC4CC4C3=O)cn1)C2` (stereo not drawn) [Example 91, N-(4-(3,3-dimethylureido)benzyl)-1-isopropyl-5-(5-(2-oxo-3-azabicyclo[3.1.0]hexan-3-yl)pyridin-2-yl)-4,5,6,7-tetrahydro-1H-pyrazolo[4,3-c]pyridine-3-carboxamide] the EC50 (STAT6; [4]) was 14 nM and the IC50 [1, 5] was 327 nM.
For `CCC1CN(c2ccc(C(=O)N(C)C)cn2)Cc2c(C(=O)NCc3ccc(NC(=O)N(C)C)cc3)nn(CC)c21` (single isomer, unassigned) [Example 313, rel-(R or S)-5-(5-(dimethylcarbamoyl)pyridin-2-yl)-N-(4-(3,3-dimethylureido)benzyl)-1,7-diethyl-4,5,6,7-tetrahydro-1H-pyrazolo[4,3-c]pyridine-3-carboxamide], the EC50 (STAT6; [2]) was 1 nM and the IC50 [1, 6] was 15 nM.
With `CCn1nc(C(=O)NCc2ccc(NC(=O)N(C)C)cc2)c2c1C(C)CN(c1ccc(C(=O)N(C)C)cn1)C2` (racemic) [Example 71, rac-(R)-5-(5-(dimethylcarbamoyl)pyridin-2-yl)-N-(4-(3,3-dimethylureido)benzyl)-1-ethyl-7-methyl-4,5,6,7-tetrahydro-1H-pyrazolo[4,3-c]pyridine-3-carboxamide] the EC50 (STAT6; [4]) was 2 nM and the IC50 [1, 5] was 14 nM.
In the case of `CN(C)C(=O)Nc1ccc(CNC(=O)c2nn(C3CCOC3)c3c2CN(c2ccc(C(=O)N(C)C)cn2)CC3)cc1` (single isomer, unassigned) [Example 191, rel-(R or S)-5-(5-(dimethylcarbamoyl)pyridin-2-yl)-N-(4-(3,3-dimethylureido)benzyl)-1-(tetrahydrofuran-3-yl)-4,5,6,7-tetrahydro-1H-pyrazolo[4,3-c]pyridine-3-carboxamide], the EC50 (STAT6; [2]) is reported as 32 nM and the IC50 [1, 6] is reported as 126 nM.
`CC(C1CCC1)n1nc(C(=O)NCc2ccc(NC(=O)N(C)C)cc2)c2c1CCN(c1ccc(C(=O)N(C)C)cn1)C2` (stereo not drawn) [Example 263, 1-(1-cyclobutylethyl)-5-(5-(dimethylcarbamoyl)pyridin-2-yl)-N-(4-(3,3-dimethylureido)benzyl)-4,5,6,7-tetrahydro-1H-pyrazolo[4,3-c]pyridine-3-carboxamide] was tested, and the EC50 (STAT6; [2]) was 9 nM and the IC50 [1, 3] was 130 nM.
With `CCC1CN(c2ccc(C(=O)N(C)C)cn2)Cc2c(C(=O)NCc3ccc(NC(=O)N(C)C)cc3)nn(CC)c21` (single isomer, unassigned) [Example 312, rel-(R or S)-5-(5-(dimethylcarbamoyl)pyridin-2-yl)-N-(4-(3,3-dimethylureido)benzyl)-1,7-diethyl-4,5,6,7-tetrahydro-1H-pyrazolo[4,3-c]pyridine-3-carboxamide] the EC50 (STAT6; [2]) was 10 nM and the IC50 [1, 6] was 163 nM.
Work on `CC(C)n1nc(C(=O)NCc2ccc(NC(=O)N3CC(C#N)C3)cc2)c2c1CCN(c1ccc(C(=O)N(C)C)cn1)C2` [Example 158, N-(4-(3-cyanoazetidine-1-carboxamido)benzyl)-5-(5-(dimethylcarbamoyl)pyridin-2-yl)-1-isopropyl-4,5,6,7-tetrahydro-1H-pyrazolo[4,3-c]pyridine-3-carboxamide] yielded an EC50 (STAT6; [4]) of 15 nM and an IC50 [1, 5] of 130 nM.
`CC(C)n1nc(C(=O)NCc2ccc(NC(=O)N(C)CC(F)F)cc2)c2c1[C@@H](C)CN(c1ccc(C(=O)N(C)C)cn1)C2` [Example 598, (S)-N-(4-(3-(2,2-difluoroethyl)-3-methylureido)benzyl)-5-(5-(dimethylcarbamoyl)pyridin-2-yl)-1-isopropyl-7-methyl-4,5,6,7-tetrahydro-1H-pyrazolo[4,3-c]pyridine-3-carboxamide] showed an EC50 (STAT6; [2]) of 1 nM and an IC50 ([1]; Homo sapiens, 48 h, human whole blood, 10 ng/mL IL13, 48 hours) of 13 nM.
